In the supplement of paper PMC10627819:

Assays:
Test in all cases: Bliss interaction score (quartile over a dose matrix) (fitness difference); higher = more antagonism (negative = synergy)
[1] = system: B. subtilis 168
How it was run: (§1)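 Fitness was defined as normalised growth: OD595 at the start of stationary phase divided by the plate's robust no-drug mean and capped at 1. Single-drug fitness was inferred from combination measurements. The Bliss score is observed fitness minus the product of the single-drug values, summarised by quartiles across technical, biological and donor/recipient replicates.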

[2] = system: S. aureus DSM 20231
How it was run: as §1

[3] = system: S. aureus Newman
How it was run: as §1

[4] = system: S. pneumoniae D39V
How it was run: as §1
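Further: first quartile when negative (synergy) and third quartile when positive (antagonism).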

Structure (SMILES)	Bliss interaction score [1]	Bliss interaction score [2]	Bliss interaction score [3]	Bliss interaction score [4]	Bliss interaction score ([1]; main component drawn)	Bliss interaction score ([2]; main component drawn)	Bliss interaction score ([3]; main component drawn)	Bliss interaction score ([4]; main component drawn)
CC[C@H]1OC(=O)[C@H](C)[C@@H](O[C@H]2C[C@@](C)(OC)[C@@H](O)[C@H](C)O2)[C@H](C)[C@@H](O[C@@H]2O[C@H](C)C[C@H](N(C)C)[C@H]2O)[C@](C)(OC)C[C@@H](C)C(=O)[C@H](C)[C@@H](O)[C@]1(C)O [Clarithromycin] + N[C@@H]1CONC1=O [CycloserineD]	0.077	-0.127	-0.0691	0.136				
CC[C@H]1OC(=O)[C@H](C)[C@@H](O[C@H]2C[C@@](C)(OC)[C@@H](O)[C@H](C)O2)[C@H](C)[C@@H](O[C@@H]2O[C@H](C)C[C@H](N(C)C)[C@H]2O)[C@](C)(OC)C[C@@H](C)C(=O)[C@H](C)[C@@H](O)[C@]1(C)O [Clarithromycin] + O=C(O)[C@H]1/C(=C/CO)O[C@@H]2CC(=O)N21 [Clavulanic]	0.047	-0.212	0.277	-0.059				
CC[C@H]1OC(=O)[C@H](C)[C@@H](O[C@H]2C[C@@](C)(OC)[C@@H](O)[C@H](C)O2)[C@H](C)[C@@H](O[C@@H]2O[C@H](C)C[C@H](N(C)C)[C@H]2O)[C@](C)(OC)C[C@@H](C)C(=O)[C@H](C)[C@@H](O)[C@]1(C)O [Clarithromycin] + Oc1cc(Cl)ccc1Oc1ccc(Cl)cc1Cl [Triclosan]	0.0259	-0.0868	0.032	0.0396				
CCC[C@@H]1C[C@@H](C(=O)N[C@@H]([C@H]2O[C@H](SC)[C@H](O)[C@@H](O)[C@H]2O)[C@H](C)Cl)N(C)C1 [Clindamycin] + CC1(C)S[C@@H]2[C@H](NC(=O)Cc3ccccc3)C(=O)N2[C@H]1C(=O)O [PenicillinG]	0.0383	0.0609	-0.0587	0.0611				
CCC[C@@H]1C[C@@H](C(=O)N[C@@H]([C@H]2O[C@H](SC)[C@H](O)[C@@H](O)[C@H]2O)[C@H](C)Cl)N(C)C1 [Clindamycin] + CC(=O)O[C@H]1C[C@@]2(C)[C@@H](C[C@@H](O)[C@H]3[C@@]4(C)CC[C@@H](O)[C@@H](C)[C@@H]4CC[C@@]32C)/C1=C(\CCC=C(C)C)C(=O)O [Fusidic acid]	0.0418	0.0254	0.0307	0.0662				
CCC[C@@H]1C[C@@H](C(=O)N[C@@H]([C@H]2O[C@H](SC)[C@H](O)[C@@H](O)[C@H]2O)[C@H](C)Cl)N(C)C1 [Clindamycin] + CC[C@H]1OC(=O)[C@H](C)C(=O)[C@H](C)[C@@H](O[C@@H]2O[C@H](C)C[C@H](N(C)C)[C@H]2O)[C@](C)(OC)C[C@@H](C)C(=O)[C@H](C)[C@H]2N(CCCCn3cnc(-c4cccnc4)c3)C(=O)O[C@]12C [Telithromycin]	0.0609	0.0256	-0.0812	0.106				
CCC[C@@H]1C[C@@H](C(=O)N[C@@H]([C@H]2O[C@H](SC)[C@H](O)[C@@H](O)[C@H]2O)[C@H](C)Cl)N(C)C1 [Clindamycin] + CC[C@H]1OC(=O)[C@H](C)[C@@H](O[C@H]2C[C@@](C)(OC)[C@@H](O)[C@H](C)O2)[C@H](C)[C@@H](O[C@@H]2O[C@H](C)C[C@H](N(C)C)[C@H]2O)[C@](C)(O)C[C@@H](C)C(=O)[C@H](C)[C@@H](O)[C@]1(C)O [Erythromycin]	0.0748	-0.0244	-0.0542	0.123				
CCC[C@@H]1C[C@@H](C(=O)N[C@@H]([C@H]2O[C@H](SC)[C@H](O)[C@@H](O)[C@H]2O)[C@H](C)Cl)N(C)C1 [Clindamycin] + CN(C)[C@@H]1C(O)=C(C(N)=O)C(=O)[C@@]2(O)C(O)=C3C(=O)c4c(O)ccc(Cl)c4[C@@](C)(O)[C@H]3C[C@@H]12 [Clortetracycline]	-0.212	-0.0617	-0.191	-0.0954				
CCC[C@@H]1C[C@@H](C(=O)N[C@@H]([C@H]2O[C@H](SC)[C@H](O)[C@@H](O)[C@H]2O)[C@H](C)Cl)N(C)C1 [Clindamycin] + CN[C@H](CC(C)C)C(=O)N[C@H]1C(=O)N[C@@H](CC(N)=O)C(=O)N[C@H]2C(=O)N[C@H]3C(=O)N[C@H](C(=O)N[C@H](C(=O)O)c4cc(O)cc(O)c4-c4cc3ccc4O)[C@H](O[C@H]3C[C@](C)(N)[C@@H](O)[C@H](C)O3)c3ccc(c(Cl)c3)Oc3cc2cc(c3O[C@@H]2O[C@H](CO)[C@@H](O)[C@H](O)[C@H]2O[C@H]2C[C@](C)(NCc3ccc(-c4ccc(Cl)cc4)cc3)[C@@H](O)[C@H](C)O2)Oc2ccc(cc2Cl)[C@H]1O [Oritavancin]	0.0359	0.0257	0.0703	0.0382				
CCC[C@@H]1C[C@@H](C(=O)N[C@@H]([C@H]2O[C@H](SC)[C@H](O)[C@@H](O)[C@H]2O)[C@H](C)Cl)N(C)C1 [Clindamycin] + CO[C@@]12[C@H](COC(N)=O)C3=C(C(=O)C(C)=C(N)C3=O)N1C[C@@H]1N[C@@H]12 [MitomycinC]	0.0747	-0.0349	0.0745	0.0747				
CCC[C@@H]1C[C@@H](C(=O)N[C@@H]([C@H]2O[C@H](SC)[C@H](O)[C@@H](O)[C@H]2O)[C@H](C)Cl)N(C)C1 [Clindamycin] + N[C@@H]1CONC1=O [CycloserineD]	0.0351	-0.101	0.0633	0.165				
CCC[C@@H]1C[C@@H](C(=O)N[C@@H]([C@H]2O[C@H](SC)[C@H](O)[C@@H](O)[C@H]2O)[C@H](C)Cl)N(C)C1 [Clindamycin] + Oc1cc(Cl)ccc1Oc1ccc(Cl)cc1Cl [Triclosan]	0.065	-0.0305	0.0225	-0.101				
N[C@@H]1CONC1=O [CycloserineD] + C/C(=C\C(=O)OCCCCCCCCC(=O)O)C[C@@H]1OC[C@H](C[C@@H]2O[C@H]2[C@@H](C)[C@H](C)O)[C@@H](O)[C@H]1O [Pseudomonic acid]	-0.0491	0.009	-0.0141	0.136				
N[C@@H]1CONC1=O [CycloserineD] + CC1(C)S[C@@H]2[C@H](NC(=O)Cc3ccccc3)C(=O)N2[C@H]1C(=O)O [PenicillinG]	0.116	-0.0754	0.0553	-0.221				
N[C@@H]1CONC1=O [CycloserineD] + CC1=C\[C@@H](O)CC(=O)Cc2nc(co2)C(=O)N2CCC=C2C(=O)O[C@H](C(C)C)[C@H](C)/C=C/C(=O)NC\C=C\1 [Virginiamycin M1]	-0.0364	0.101	0.0587	-0.0528				
N[C@@H]1CONC1=O [CycloserineD] + CC(=O)NC[C@H]1CN(c2ccc(N3CCOCC3)c(F)c2)C(=O)O1 [Linezolid]	-0.0639	-0.125	0.06	0.146				
N[C@@H]1CONC1=O [CycloserineD] + CC(=O)O[C@H]1C[C@@]2(C)[C@@H](C[C@@H](O)[C@H]3[C@@]4(C)CC[C@@H](O)[C@@H](C)[C@@H]4CC[C@@]32C)/C1=C(\CCC=C(C)C)C(=O)O [Fusidic acid]	0.0616	0.0576	-0.0418	0.211				
N[C@@H]1CONC1=O [CycloserineD] + CC(C1CCC(C(O1)OC2C(CC(C(C2O)OC3C(C(C(CO3)(C)O)NC)O)N)N)N)NC [Gentamicin]					-0.0482	-0.125	0.0356	-0.0744
N[C@@H]1CONC1=O [CycloserineD] + CCC(C)C1C(=O)NC(=C)C(=O)NC(C(=O)NC(CSCC(C(=O)N1)NC(=O)/C(=C/C)/NC(=O)C(C(C)CC)N)C(=O)NC2C(SCC(NC(=O)CNC(=O)C3CCCN3C2=O)C(=O)NC(CCCCN)C(=O)NC4C(SCC(NC(=O)CNC(=O)C(NC(=O)C(NC(=O)C(NC(=O)CNC4=O)C)CC(C)C)CCSC)C(=O)NC(CC(=O)N)C(=O)NC(CCSC)C(=O)NC(CCCCN)C(=O)NC5C(SCC6C(=O)NC(C(=O)NC(CSC(C(C(=O)N6)NC(=O)C(NC5=O)C)C)C(=O)NC(CO)C(=O)NC(C(C)CC)C(=O)NC(CC7=CN=CN7)C(=O)NC(C(C)C)C(=O)NC(=C)C(=O)NC(CCCCN)C(=O)O)CC8=CN=CN8)C)C)C)CC(C)C [Nisin]					0.0525	0.193	0.0401	0.0554
N[C@@H]1CONC1=O [CycloserineD] + CCCCCCCCCC(=O)N[C@@H]1[C@H]([C@@H]([C@H](O[C@H]1OC2=C3C=C4C=C2OC5=C(C=C(C=C5)[C@H]([C@H]6C(=O)N[C@@H](C7=C(C(=CC(=C7)O)OC8[C@H]([C@H]([C@@H]([C@H](O8)CO)O)O)O)C9=C(C=CC(=C9)[C@H](C(=O)N6)NC(=O)[C@@H]4NC(=O)[C@@H]1C2=CC(=CC(=C2)OC2=C(C=CC(=C2)[C@H](C(=O)N[C@H](CC2=CC(=C(O3)C=C2)Cl)C(=O)N1)N)O)O)O)C(=O)O)O[C@H]1[C@@H]([C@H]([C@@H]([C@H](O1)CO)O)O)NC(=O)C)Cl)CO)O)O [Teicoplanin]					0.0976	0.0399	0.054	-0.0849
N[C@@H]1CONC1=O [CycloserineD] + CCC[C@@H]1C[C@@H](C(=O)N[C@@H]([C@H]2O[C@H](SC)[C@H](O)[C@@H](O)[C@H]2O)[C@@H](C)O)N(C)C1 [Lincomycin]	-0.0375	-0.146	0.102	0.153				
N[C@@H]1CONC1=O [CycloserineD] + CCN(CC)CCOC(=O)c1ccc(N)cc1 [Procaine]	-0.0484	0.0639	0.0381	-0.0723				
N[C@@H]1CONC1=O [CycloserineD] + CC[C@H]1OC(=O)[C@H](C)C(=O)[C@H](C)[C@@H](O[C@@H]2O[C@H](C)C[C@H](N(C)C)[C@H]2O)[C@](C)(OC)C[C@@H](C)C(=O)[C@H](C)[C@H]2N(CCCCn3cnc(-c4cccnc4)c3)C(=O)O[C@]12C [Telithromycin]	0.0974	0.116	0.0514	0.0906				
N[C@@H]1CONC1=O [CycloserineD] + CC[C@H]1OC(=O)[C@H](C)[C@@H](O[C@H]2C[C@@](C)(OC)[C@@H](O)[C@H](C)O2)[C@H](C)[C@@H](O[C@@H]2O[C@H](C)C[C@H](N(C)C)[C@H]2O)[C@](C)(O)C[C@@H](C)C(=O)[C@H](C)[C@@H](O)[C@]1(C)O [Erythromycin]	0.077	-0.043	-0.0485	0.0918				
N[C@@H]1CONC1=O [CycloserineD] + CN1C2=CC=CC=C2N=C3C1=CC=CC3=O [Pyocyanin]	-0.0572	0.0676	-0.0546	0.201				
N[C@@H]1CONC1=O [CycloserineD] + CN(C)C(=O)C(CCN1CCC(O)(c2ccc(Cl)cc2)CC1)(c1ccccc1)c1ccccc1 [Loperamide]	-0.209	0.0915	0.0674	0.289				
N[C@@H]1CONC1=O [CycloserineD] + CN(C)c1cc(NC(=O)CNC(C)(C)C)c(O)c2c1C[C@H]1C[C@H]3[C@H](N(C)C)C(O)=C(C(N)=O)C(=O)[C@@]3(O)C(O)=C1C2=O [Tigecycline]	-0.0502	0.0966	0.0356	-0.0514				
N[C@@H]1CONC1=O [CycloserineD] + CN(N=O)C(=O)N[C@@H](C=O)[C@@H](O)[C@H](O)[C@H](O)CO [Streptozotocin]	0.0463	-0.14	-0.0611	-0.16				
N[C@@H]1CONC1=O [CycloserineD] + CN[C@@H]1[C@H](O)[C@H](NC)[C@H]2O[C@@]3(O)C(=O)C[C@@H](C)O[C@H]3O[C@@H]2[C@H]1O [Spectinomycin]	-0.034	0.0625	0.0506	0.11				
N[C@@H]1CONC1=O [CycloserineD] + CN[C@@H]1[C@H](O[C@H]2[C@H](O[C@H]3[C@H](O)[C@@H](O)[C@H](N=C(N)N)[C@@H](O)[C@@H]3N=C(N)N)O[C@@H](C)[C@]2(O)C=O)O[C@@H](CO)[C@H](O)[C@H]1O [Streptomycin]	-0.0511	-0.136	0.0653	-0.108				
